Drawing on US20250340560A1, “SUBSTITUTED PYRAZOLO[1,5-a]PYRIMIDINES AS BRUTON'S TYROSINE KINASE MODULATORS” (BEIGENE SWITZERLAND GMBH, priority 2013, published 2025), this text covers IC50 for 34 compounds.

Where a name gives a salt, the structure may show the parent alone.

The assay concerns the target Recombinant Btk (Homo sapiens (Human), UniProt Q06187). Kind of assay: BTK kinase assay (TR-FRET). The conditions noted are these: read-out: IC50 (nM) Btk; 1 hour pre-incubation, ATP at Km. In general terms: In TR-FRET formats the signal depends on donor and acceptor labels being close together.

As usually defined, the IC50 is the concentration needed to halve the response being measured.

Sequence of Recombinant Btk (Q06187 whole entry): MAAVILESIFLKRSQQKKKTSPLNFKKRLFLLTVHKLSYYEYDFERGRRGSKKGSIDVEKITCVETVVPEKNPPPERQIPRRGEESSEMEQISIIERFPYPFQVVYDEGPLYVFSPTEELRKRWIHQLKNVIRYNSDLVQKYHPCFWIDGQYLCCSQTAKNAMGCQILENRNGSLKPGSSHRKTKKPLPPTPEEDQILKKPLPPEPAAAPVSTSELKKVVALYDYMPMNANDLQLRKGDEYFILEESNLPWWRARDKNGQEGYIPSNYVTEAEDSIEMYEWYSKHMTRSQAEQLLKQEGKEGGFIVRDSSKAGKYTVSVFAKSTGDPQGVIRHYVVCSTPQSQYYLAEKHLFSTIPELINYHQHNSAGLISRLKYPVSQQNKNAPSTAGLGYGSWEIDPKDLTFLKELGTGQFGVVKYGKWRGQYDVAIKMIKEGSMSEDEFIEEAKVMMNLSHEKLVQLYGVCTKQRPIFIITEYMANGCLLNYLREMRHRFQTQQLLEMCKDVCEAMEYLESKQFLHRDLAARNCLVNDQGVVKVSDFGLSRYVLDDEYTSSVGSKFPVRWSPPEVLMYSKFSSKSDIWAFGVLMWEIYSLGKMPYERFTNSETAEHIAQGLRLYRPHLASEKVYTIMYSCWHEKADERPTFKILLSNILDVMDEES

`CN(C)CCC(=O)N1CCc2[nH]c3c(C(N)=O)c(-c4ccc(Oc5ccccc5)cc4)nn3c2C1` [Compound 57, 7-(3-(Dimethylamino)propanoyl)-2-(4-phenoxyphenyl)-5,6,7,8-tetrahydro-4H-pyrazolo[5′,1′:2,3]imidazo[4,5-c]pyridine-3-carboxamide trifluoroacetate]: the IC50 was determined as 37 nM.
For the compound `CC=CC(=O)N1CCc2[nH]c3c(C(N)=O)c(-c4ccc(Oc5ccccc5)cc4)nn3c2C1` [Compound 58, 7-(But-2-enoyl)-2-(4-phenoxyphenyl)-5,6,7,8-tetrahydro-4H-pyrazolo [5′,1′:2,3]imidazo[4,5-c]pyridine-3-carboxamide], the concentration for half-maximal inhibition (IC50) came out at 0.43 nM.
Take `NC(=O)c1c(-c2ccc(Oc3ccccc3)cc2)nn2c1[nH]c1cnccc12` [Compound 61, 2-(4-Phenoxyphenyl)-4H-pyrazolo[1′,5′:1,2]imidazo[4,5-c]pyridine-3-carboxamide]: the IC50 turned out to be 140 nM.
With `NC(=O)c1c(-c2ccc(Oc3ccccc3)cc2)nn2c3c([nH]c12)CNCC3` [Compound 62, 2-(4-Phenoxyphenyl)-5,6,7,8-tetrahydro-4H-pyrazolo[1′,5′:1,2]imidazo [4,5-c]pyridine-3-carboxamide], the IC50 is 240 nM.
For `CN(C)C/C=C/C(=O)N1CCc2c([nH]c3c(C(N)=O)c(-c4ccc(Oc5ccccc5)cc4)nn23)C1` [Compound 64, (E)-6-(4-(Dimethylamino)but-2-enoyl)-2-(4-phenoxyphenyl)-5,6,7,8-tetrahydro-4H-pyrazolo[1′,5′:1,2]imidazo[4,5-c]pyridine-3-carboxamide trifluoroacetate] the value was 0.17 nM; for `NC(=O)c1c(-c2ccc(Oc3ccccc3)cc2)nn2c1[nH]c1ccc([N+](=O)[O-])cc12` [Compound 65, 7-Nitro-2-(4-phenoxyphenyl)-4H-benzo[4,5]imidazo[1,2-b]pyrazole-3-carboxamide], 320 nM.
With `NC(=O)c1c(-c2ccc(Oc3ccccc3)cc2)nn2c1NCc1ccc(N)cc1-2` [Compound 68, 8-Amino-2-(4-phenoxyphenyl)-4,5-dihydropyrazolo[1,5-a]quinazoline-3-carboxamide], the IC50 worked out at 190 nM.
Then `C=CC(=O)Nc1ccc2c(c1)-n1nc(-c3ccc(Oc4ccccc4)cc3)c(C(N)=O)c1NC2` [Compound 69, 8-Acrylamido-2-(4-phenoxyphenyl)-4,5-dihydropyrazolo[1,5-a]quinazoline-3-carboxamide], with 7.8 nM; and `NC(=O)c1c(-c2ccc(Oc3ccccc3)cc2)nn2c1NCCc1cc([N+](=O)[O-])ccc1-2` [Compound 70, 8-Nitro-2-(4-phenoxyphenyl)-5,6-dihydro-4H-benzo[f]pyrazolo[1,5-a][1,3]diazepine-3-carboxamide], with 19 nM.
As to `NC(=O)c1c(-c2ccc(Oc3ccccc3)cc2)nn2c1NCCc1cc(N)ccc1-2` [Compound 71, 8-Amino-2-(4-phenoxyphenyl)-5,6-dihydro-4H-benzo[f]pyrazolo[1,5-a][1,3]diazepine-3-carboxamide], the half-inhibitory concentration (IC50) was found to be 55 nM.
For `NC(=O)c1c(-c2ccc(Oc3ccccc3)cc2)nn2c1NC(=O)Cc1cc([N+](=O)[O-])ccc1-2` [Compound 73, 8-Nitro-5-oxo-2-(4-phenoxyphenyl)-5,6-dihydro-4H-benzo[f]pyrazolo[1,5-a][1,3]diazepine-3-carboxamide], the IC50 is above 10000 nM.
For the compound `NC(=O)c1c(-c2ccc(Oc3ccccc3)cc2)nn2c1NC(=O)Cc1cc(N)ccc1-2` [Compound 74, 8-Amino-5-oxo-2-(4-phenoxyphenyl)-5,6-dihydro-4H-benzo[f]pyrazolo[1,5-a][1,3]diazepine-3-carboxamide], the IC50 amounted to 240 nM.
On to `C=CC(=O)Nc1ccc2c(c1)CC(=O)Nc1c(C(N)=O)c(-c3ccc(Oc4ccccc4)cc3)nn1-2` [Compound 75, 8-Acrylamido-5-oxo-2-(4-phenoxyphenyl)-5,6-dihydro-4H-benzo[f]pyrazolo[1,5-a][1,3]diazepine-3-carboxamide], for which the 50% inhibitory concentration (IC50) was determined as 41 nM.
Turning to `NC(=O)c1c(-c2ccc(Oc3ccccc3)cc2)nn2c1[nH]c(=O)c1cc([N+](=O)[O-])ccc12` [Compound 76, 7-Nitro-5-oxo-2-(4-phenoxyphenyl)-4,5-dihydropyrazolo[1,5-a]quinazoline-3-carboxamide], the concentration for half-maximal inhibition (IC50) is 5500 nM.
For `NC(=O)c1c(-c2ccc(Oc3ccccc3)cc2)nn2c1[nH]c(=O)c1cc(N)ccc12` [Compound 77, 7-Amino-5-oxo-2-(4-phenoxyphenyl)-4,5-dihydropyrazolo[1,5-a]quinazoline-3-carboxamide] the value was 480 nM.
`C=CC(=O)Nc1ccc2c(c1)c(=O)[nH]c1c(C(N)=O)c(-c3ccc(Oc4ccccc4)cc3)nn12` [Compound 78, 7-Acrylamido-5-oxo-2-(4-phenoxyphenyl)-4,5-dihydropyrazolo[1,5-a]quinazoline-3-carboxamide]: the IC50 amounted to 21 nM.
For `NC(=O)c1c(-c2ccc(Oc3ccccc3)cc2)nn2c1[nH]c(=O)c1ccc(N)cc12` [Compound 79, 8-Amino-5-oxo-2-(4-phenoxyphenyl)-4,5-dihydropyrazolo[1,5-a]quinazoline-3-carboxamide] the value was 50 nM; for `NC(=O)c1c(-c2ccc(Oc3ccccc3)cc2)nn2c(C3CCNCC3)cc(=O)[nH]c12` [Compound 80, 5-Oxo-2-(4-phenoxyphenyl)-7-(piperidin-4-yl)-4,5-dihydropyrazolo[1,5-a]pyrimidine-3-carboxamide], above 10000 nM.
For the compound `C=CC(=O)N1CCC(c2cc(=O)[nH]c3c(C(N)=O)c(-c4ccc(Oc5ccccc5)cc4)nn23)CC1` [Compound 81], the IC50 worked out at 5900 nM.
On to `NC(=O)c1c(-c2ccc(Oc3ccccc3)cc2)nn2c1NC(=O)C21CCNCC1` [Compound 82, 2-Oxo-6-(4-phenoxyphenyl)-1,2-dihydrospiro[imidazo[1,2-b]pyrazole-3,4′-piperidine]-7-carboxamide], for which the 50% inhibitory concentration (IC50) came out at 3100 nM.
Take `C=CC(=O)N1CCC2(CC1)C(=O)Nc1c(C(N)=O)c(-c3ccc(Oc4ccccc4)cc3)nn12` [Compound 83, 1′-Acryloyl-2-oxo-6-(4-phenoxyphenyl)-1,2-dihydrospiro[imidazo[1,2-b]pyrazole-3,4′-piperidine]-7-carboxamide]: the IC50 came to 130 nM.
`NC(=O)c1c(-c2ccc(Oc3ccccc3)cc2)nn2c1NCC(N)C2` (stereo not shown) [Compound 84, 6-Amino-2-(4-phenoxyphenyl)-4,5,6,7-tetrahydropyrazolo[1,5-a]pyrimidine-3-carboxamide]: the IC50 came out at 2900 nM.
With `C=CC(=O)NC1CNc2c(C(N)=O)c(-c3ccc(Oc4ccccc4)cc3)nn2C1` (stereo not shown) [Compound 85, 6-Acrylamido-2-(4-phenoxyphenyl)-4,5,6,7-tetrahydropyrazolo[1,5-a]pyrimidine-3-carboxamide], the IC50 was 32 nM.
For `C=CC(=O)NCC1CNc2c(C(N)=O)c(-c3ccc(Oc4ccccc4)cc3)nn2C1` (stereo not shown) [Compound 86, 6-(Acrylamidomethyl)-2-(4-phenoxyphenyl)-4,5,6,7-tetrahydropyrazolo[1,5-a]pyrimidine-3-carboxamide] the value was 2.2 nM.
Consider `NC(=O)c1c(-c2ccc(Oc3ccccc3)cc2)nn2c1NCC1(CNC1)C2` [Compound 87, 2′-(4-Phenoxyphenyl)-5′,7′-dihydro-4′H-spiro[azetidine-3,6′-pyrazolo[1,5-a]pyrimidine]-3′-carboxamide], for which the 50% inhibitory concentration (IC50) was found to be 2000 nM.
Then `C=CC(=O)N1CC2(CNc3c(C(N)=O)c(-c4ccc(Oc5ccccc5)cc4)nn3C2)C1` [Compound 88, 1-Acryloyl-2′-(4-phenoxyphenyl)-5′,7′-dihydro-4′H-spiro[azetidine-3,6′-pyrazolo[1,5-a]pyrimidine]-3′-carboxamide], with 16 nM.
On to `NC(=O)c1c(-c2ccc(Oc3ccccc3)cc2)nn2c1NCC(c1ccccc1N)C2` (stereo not shown) [Compound 89, 6-(2-Aminophenyl)-2-(4-phenoxyphenyl)-4,5,6,7-tetrahydropyrazolo[1,5-a]pyrimidine-3-carboxamide], for which the IC50 was above 10000 nM.
`NC(=O)c1c(-c2ccc(Oc3ccccc3)cc2)nn2c1NCC(c1cccc(N)c1)C2` (stereo not shown) [Compound 90, 6-(3-Aminophenyl)-2-(4-phenoxyphenyl)-4,5,6,7-tetrahydropyrazolo[1,5-a]pyrimidine-3-carboxamide]: the IC50 stood at 1900 nM.
On to `CN(C)CCOc1cccc(C2CNc3c(C(N)=O)c(-c4ccc(Oc5ccccc5)cc4)nn3C2)c1` (stereo not shown) [Compound 91, 6-(3-(2-(Dimethylamino)ethoxy)phenyl)-2-(4-phenoxyphenyl)-4,5,6,7-tetrahydropyrazolo[1,5-a]pyrimidine-3-carboxamide], for which the IC50 worked out at 1900 nM.
As for `CN(C)C/C=C/C(=O)Nc1ccccc1C1CCNc2c(C(N)=O)c(-c3ccc(Oc4ccccc4)cc3)nn21` (stereo not shown) [Compound 92, (E)-7-(2-(4-(dimethylamino)but-2-enamido)phenyl)-2-(4-phenoxyphenyl)-4,5,6,7-tetrahydropyrazolo[1,5-a]pyrimidine-3-carboxamide], the IC50 stood at 1.1 nM.
As for `COc1ccc(-c2nn3c(c2C(N)=O)NCCC3c2ccccc2N)cc1` (stereo not shown) [Compound 93, 7-(2-Aminophenyl)-2-(4-methoxyphenyl)-4,5,6,7-tetrahydropyrazolo[1,5-a]pyrimidine-3-carboxamide], the IC50 came out at 1500 nM.
Then `NC(=O)c1c(-c2ccc(Oc3ccccc3)cc2)nn2c1NCCC2c1cc(N)ccc1Cl` (stereo not shown) [Compound 95, 7-(5-amino-2-chlorophenyl)-2-(4-phenoxyphenyl)-4,5,6,7-tetrahydropyrazolo[1,5-a]pyrimidine-3-carboxamide], with 470 nM; and `C=CC(=O)Nc1ccc(Cl)c(C2CCNc3c(C(N)=O)c(-c4ccc(Oc5ccccc5)cc4)nn32)c1` (stereo not shown) [Compound 96, 7-(5-acrylamido-2-chlorophenyl)-2-(4-phenoxyphenyl)-4,5,6,7-tetrahydropyrazolo[1,5-a]pyrimidine-3-carboxamide], with 30 nM.
Regarding `C=CC(=O)Nc1cc(C2CCNc3c(C(N)=O)c(-c4ccc(Oc5ccccc5)cc4)nn32)ccc1Cl` (stereo not shown) [Compound 97, 7-(3-acrylamido-4-chlorophenyl)-2-(4-phenoxyphenyl)-4,5,6,7-tetrahydropyrazolo[1,5-a]pyrimidine-3-carboxamide], the half-inhibitory concentration (IC50) was found to be 1.1 nM.
